US6468476B1, “Methods for using-co-regulated genesets to enhance detection and classification of gene expression patterns” (Rosetta Inpharmatics, Inc., priority 1998, dated 2002)

System: genesets (calcineurin-mediated, Gcn4-mediated)
Assay: Response profiles projected onto genesets defined by cluster analysis of 34 experiments
Type: cell-based, Saccharomyces cerevisiae
Conditions: HU at 3.1 mM
Protocol: Yeast (Saccharomyces cerevisiae, Strain YPH499, see, Sikorski and Hieter, 1989, A system of shuttle vectors and yeast host strains designated for efficient manipulation of DNA in Saccharomyces cerevisiae, Genetics 122:19-27) cells were grown in YAPD at 30° C. to an OD600 of 1.0 (±0.2), and total RNA prepared by breaking cells in phenol/chloroform and 0.1% SDS by standard procedures (Ausubel et al., 1995, Current Protocols in Molecular Biology, Greene Publishing and Wiley-Interscience, New York, Ch. 13). Poly(A)^+ RNA was selected by affinity chromatography on oligo-dT cellulose (New England Biolabs) essentially as described in Sambrook et al. (Molecular Cloning—A Laboratory Manual (2nd Ed.), Vol. 1, Cold Spring Harbor Laboratory, Cold Spring Harbor, N.Y., 1989). First strand cDNA synthesis was carried out with 2 μg poly(A)^+ RNA and SuperScript™ II reverse transcriptase (Gibco-BRL) according to the manufacturer's instructions with the following modifications. […]
Fluorescently-labeled cDNAs (2-6 μg) are resuspended in 4×SSC plus 1 μg/μl tRNA as carrier and filtered using […] filters (Millipore, Bedford, Mass.). […] Microarrays are scanned with a fluorescence laser-scanning device as previously described (Schena et al., 1995, Science 270:467-470; Schena et al., 1995, Proc. Natl. Acad. Sci. USA 93:[…]) and the results (including the positions of perturbations) are recorded. […]

**Q.** How did the Projected profile turn out when NC(=O)NO [HU, Hydroxyurea] was run?
**A.** very weak
